Measured values as given in patent US7772188B2, “Methods and compositions for the treatment of gastrointestinal disorders” (priority 2003, dated 2010).
Positions of bridges follow the written chain, without caps; N, C: chain ends. Residues, ends and D or L forms follow the SMILES beside them.

Experiments:
[1] = test system: intestinal secretion; assay: Suckling mouse model of intestinal secretion (SuMi assay); format: in vivo; details: suckling mice; dose response; FIG. 5a/5b
Experimental: In this model a test compound is administered to suckling mice that are between 7 and 9 days old. After the mice are sacrificed, the gastrointestinal tract from the stomach to the cecum is dissected (“guts”). The remains (“carcass”) as well as the guts are weighed and the ratio of guts to carcass weight is calculated. If the ratio is above 0.09, one can conclude that the test compound increases intestinal secretion. […] The effect of Zelnorm® was also studied.

[2] = Bioavailability study in mice, serum detection by LCMS; format: in vivo; details: FIG. 10b
Experimental: A similar bioavailability study was performed in which LCMS rather than ELISA was used to detect SEQ ID NO:3. Initially, serum samples were extracted from the whole blood of exposed and control mice, then injected directly ([…]) onto an in-line solid phase extraction (SPE) column (Waters Oasis HLB […] column, 2.0×15 mm direct connect) without further processing. The sample on the SPE column was washed with a 5% methanol, 95% dH2O solution (2.1 mL/min, 1.0 minute), then loaded onto an analytical column using a valve switch that places the SPE column in an inverted flow path onto the analytical column (Waters Xterra MS C8 5 mm IS column, 2.1×20 mm). The sample was eluted from the analytical column with a reverse phase gradient (Mobile Phase A: 10 mM ammonium hydroxide in dH2O, Mobile Phase B: 10 mM ammonium hydroxide in 80% acetonitrile and 20% methanol; 20% B for the first 3 minutes then ramping to 95% B over 4 min. and holding for 2 min., all at a flow rate of 0.4 mL/min.). At 9.1 minutes, the gradient returns to the initial conditions of 20% B for 1 min. SEQ ID NO:3 eluted from the analytical column at 1.45 minutes, and was detected by triple-quadrapole mass spectrometry (MRM, 764 (+2 charge state)>182 (+1 charge state) Da; cone voltage=30V; collision=20 eV; parent resolution=2 Da at base peak; daughter resolution=2 Da at base peak). […]

[3] = test system: abdominal response to colorectal distension; assay: Trinitrobenzenesulphonic acid (TNBS)-induced rectal allodynia model, colorectal distension; format: in vivo, Wistar rats; details: rats, FIG. 7
Experimental: Male Wistar rats (220-250 g) were premedicated with 0.5 mg/kg of acepromazine injected intraperitoneally (IP) and anesthetized by intramuscular administration of 100 mg/kg of ketamine. Pairs of nichrome wire electrodes (60 cm in length and 80 μm in diameter) were implanted in the striated muscle of the abdomen, 2 cm laterally from the white line. The free ends of electrodes were exteriorized on the back of the neck and protected by a plastic tube attached to the skin. Electromyographic (EMG) recordings were started 5 days after surgery. Electrical activity of abdominal striated muscle was recorded with an electroencephalograph machine (Mini VIII, Alvar, Paris, France) using a short time constant (0.03 sec.) to remove low-frequency signals (<3 Hz).
Ten days post surgical implantation, trinitrobenzenesulphonic acid (TNBS) was administered to induce rectal inflammation. TNBS (80 mg kg^−1 in 0.3 ml 50% ethanol) was administered intrarectally through a silicone rubber catheter introduced at 3 cm from the anus under light diethyl-ether anesthesia, as described (Morteau et al. 1994 Dig Dis Sci 39:1239). […] Evaluation of rectal sensitivity, as measured by EMG, was performed before (1-2 days) and 3 days following rectal instillation of TNBS.
The number of spike bursts that corresponds to abdominal contractions was determined per 5 min periods. […]

C[C@@H]1NC(=O)[C@@H]2CCCN2C(=O)[C@H](CC(N)=O)NC(=O)[C@@H]2CSSC[C@H](N)C(=O)N[C@H]3CSSC[C@H](NC1=O)C(=O)N[C@@H]([C@@H](C)O)C(=O)NCC(=O)N[C@H](C(=O)N[C@@H](Cc1ccc(O)cc1)C(=O)O)CSSC[C@H](NC(=O)[C@H](Cc1ccc(O)cc1)NC(=O)[C@H](CCC(=O)O)NC3=O)C(=O)N2 [SEQ ID NO:3, Cys Cys Glu Tyr Cys Cys Asn Pro Ala Cys Thr Gly Cys Tyr] (H-CCEYCCNPACTGCY-OH; disulfide 1-6, 2-10, 5-13; N-terminus and C-terminus assumed)
intestinal secretion (guts to carcass weight ratio) [1]: increase intestinal secretion
bioavailability ([2]; CD1, mouse, serum, oral versus IV): < 0.11%
systemic absorption ([2]; oral): minimally systemically absorbed
abdominal response (abdominal contractions, EMG) ([3]; 0.3 μg/kg): Significant decreases in abdominal response
abdominal response (abdominal contractions, EMG) ([3]; 3 μg/kg): Significant decreases in abdominal response
